# Read-outs that look alike come from different tables or passages of the source.
# Assays:
# [1] = system: KDO aldolase (EC 4.1.2.23); assay: KDO aldolase-catalyzed aldol condensation of sugars with pyruvate (kinetic and relative rate measurements via remaining pyruvate); assay type: biochemical, Aureobacterium barkerei strain KDO-37-2; conditions: for rel. V (relative rate of aldol condensation): pyruvate 10 mM, sugar 0.5 M, 0.1 M phosphate pH 7.5, 37° C., relative to D-arabinose
# Excerpt: (§1) Partially purified KDO aldolase simply obtained by ammonium sulfate precipitation (8.0 U/mL; 0.19 U/mg for degradation of KDO) was used in substrate-specificity studies reported herein. The KDO aldolase employed for the kinetic analysis reported herein, was further purified via DEAE sepharose and phenyl sepharose column chromatography to a specific activity of 5.7 U/mg. […] The enzymatic reaction favors the cleavage of KDO, with the equilibrium constant Keq=[pyruvate][arabinose]/KDO=9×10^−2M.
# The rates for aldolase-catalyzed reactions were obtained by measuring the amount of remaining pyruvate, according the method of Kim (supra). The reactions were carried out in 0.1 M phosphate buffer (pH 7.5) containing: varied concentrations of pyruvate, 2.0, 3.33, 5, and 10 mM; varied concentrations of D-arabinose, 0.2, 0.25, 0.33, and 0.50 M in 0.5 mL of solution. Each solution was incubated at 37° C. Periodically, a small aliquot (25-100 μL) was withdrawn and mixed with an assay solution (1.4 mL) containing 0.1 M phosphate (pH 7.5) buffer, 0.3 mM NADH, and 20-30 U of L-lactate dehydrogenase. The decrease in absorbance at 340 nm was measured and converted into the amount of the unreacted pyruvate using 6220 M^−1cm^−1 for the molecular absorbance of NADH. The kinetic parameters were obtained from the Lineweaver-Burk plots.
# For the relative rate measurements, the concentration of pyruvate (fluoropyruvate) and sugar were fixed at 10 mM and 0.5 M, respectively. Other conditions were the same as above.
# KDO aldolase [2] = conditions: enzyme from E. coli; cited from earlier work
# KDO aldolase [3] = conditions: enzyme from Aerobacter cloacae; cited from earlier work
# [4] = system: KDO aldolase (EC 4.1.2.23); assay: KDO aldolase degradation (cleavage) of KDO; assay type: biochemical, Aureobacterium barkerei strain KDO-37-2; conditions: read-out: Km in the course of degradation
# Method: It is disclosed herein that the Gram-positive bacterium Aureobacterium barkerei strain KDO-37-2 can be induced to contain high levels of KDO aldolase. The aldolase activity from this source was assayed according to Aminoff's method (Biochem. J. 1961, 81, 384). Two liters of culture contained 10.2 U based on the degradation of KDO. This KDO activity is 4 times and 8 times higher than the corresponding KDO activity from Escherichia coli K-12 and Aerobacter cloacae, respectively, as reported by Gharambor (supra).
# as §1
# With one slight modification, the incubation was carried out according to the procedure reported by Gharambor (supra). […] The enzyme activity was determined to be 1.45 U/mL for the degradation of KDO according to the method of Aminoff (Biochem. J. 1961, 81, 384). […]
# [5] = Proportion of β-isomer by comparing 1H NMR spectra; assay type: physicochemical
# Method: Finally, the aldol reaction with an unnatural sugar containing a fluorine atom was conducted to give 18 (19% of 19). By comparing the ^1H NMR spectra, the proportion of the β-isomer (10.71) of 18 was ca. 1.5 times higher than that of KDO (6.9%), probably due to the absence of furanose and 1<<5 lactone forms. […] (Kohlbrenner, W. E. and Fesik, S. W., J. Biol. Chem. 1985, 260, 14695.) We therefore synthesized 18 in a larger scale by combining the use of KDO aldolase and pyruvate decarboxylase, which made the workup procedure much easier.
compound,measurement,setting,value
"O=C[C@@H](O)[C@H](O)[C@H](O)CO [D-arabinose, reference compound]",Vmax,"[1]; condensation of D-arabinose with pyruvate, enzyme purified to 5.7 U/mg",0.73 U/mg
O=C[C@H](O)[C@H](O)[C@H](O)CO [D-ribose],rel. V (relative rate of aldol condensation),[1],72%
same,rel. V,KDO aldolase [2],< 5%
same,rel. V,KDO aldolase [3],< 5%
O=C[C@@H](O)[C@H](O)[C@H](O)[C@H](O)CO [D-altrose],rel. V (relative rate of aldol condensation),[1],25%
C[C@H](O)[C@@H](O)[C@@H](O)[C@H](O)C=O [L-fucose],rel. V (relative rate of aldol condensation),[1],rate not detectable
O=C(O)C(=O)CF [fluoropyruvate],accepted as substrate for the condensation,[1],neither fluoropyruvate nor ketohexose was accepted
O=CC[C@H](O)[C@H](O)CO [2-deoxy-D-ribose],rel. V (relative rate of aldol condensation),[1],71%
"O=C(O)C(=O)C[C@@H](O)[C@@H](O)[C@H](O)[C@H](O)CO [KDO, 3-deoxy-D-manno-2-octulosonic acid]",Km,[4],6 mM
same,proportion of the β-isomer,[5],6.9%

# From patent publication US6423834B1, “KDO aldolase and condensation reactions employed therewith” (The Scripps Research Institute, priority 1992, dated 2002)
